Reference: patent publication US11535599B2, “Benzisoxazole derivative” (Sumitomo Pharma Co., Ltd., priority 2020, dated 2022)

Key:
[1] = test system: reserpine-induced Parkinson's disease model mouse; test: Potentiating effect of levodopa-induced hyperactivity in reserpine-induced Parkinson's disease model mouse; assay type: in vivo; details: Examples 12.5 or 25 mg/kg oral; rasagiline 3 or 10 mg/kg; with levodopa 200 mg/kg i.p.
[2] = test system: oxaliplatin chemotherapy-induced peripheral neuropathy model; test: Anti-allodynia effect in chemotherapy-induced peripheral neuropathy model (acetone test); assay type: in vivo, rat; details: Example 13 100 mg/kg oral once a day 17 times; duloxetine 30 mg/kg oral single
Description: As one of chemotherapy-induced peripheral neuropathy, sensory disturbance due to neuropathy caused by a platinating agent that is an anticancer agent such as cisplatin and oxaliplatin is known, and the symptom is difficult to be recovered even after the medication is discontinued. The therapeutic effect for sensory disturbance caused by repetitive administration of oxaliplatin was studied in the present test.
To male Crl: CD (SD) rats (7 weeks old) (CHARLES RIVER LABORATORIES JAPAN, INC.), oxaliplatin (5 mg/kg) was intraperitoneally administered for the two consecutive days in a week, totally 6 times, to prepare chemotherapy-induced peripheral neuropathy models. The compound of Example 13 (100 mg/kg) was repeatedly orally administered once a day, totally 17 times. […] In the acetone test, 0.1 mL of acetone was sprayed to the foot sole of the rat hind paw, and the reaction was evaluated according a scoring (Cold Score). When there was no reaction for 20 seconds after spraying acetone, Score 0 was recorded and the observation was stopped. When there was any reaction for the 20 seconds, the observation was continued until 40 seconds after spraying, and the score was recorded according to the evaluation scale. The acetone spray was done twice each for right and left hind paws, and the total score was calculated. […]

[3] = test system: mouse elevated plus maze; test: Anxiolytic-like action, mouse elevated plus maze; assay type: in vivo; details: Example 13 at 10 mg/kg or more oral; diazepam 3 mg/kg oral
Protocol: In Parkinson's disease, psychiatric symptom (e.g. depression, anxiety) is known as one of its non-motor symptoms. The anxiolytic-like action of the present invention was evaluated with mouse elevated plus maze. The present test is broadly used as a method for evaluating the anxiolytic-like action of agents.
In the present test, male Crl: CD1 (ICR) mice (CHARLES RIVER LABORATORIES JAPAN, INC.) were used. One hour before the test was started, the solvent, the compound of Example 13 (3 mg/kg, 10 mg/kg, 30 mg/kg, or 100 mg/kg), or diazepam (3 mg/kg) which is a positive control was orally administered to the mouse. The mouse was put into a center platform in which the illuminance was adjusted to 80-100 Lux level. The head of the mouse was set toward the closed arm, and then the test was started. The mouse was allowed to explore freely for 5 minutes. When ⅓ of the mouse's body entered the arm, the behavior was counted as arm entry. And, the time spent in the open arm was also measured with a stopwatch. The ratio of the count of the open arm entry per the count of the all arm entry, and the ratio of the time spent in the open arm per the total exploration time (5 minutes) were calculated. […] Thus, the ratio of the count of the open arm entry per the count of the all arm entry, and the ratio of the time spent in the open arm per the total exploration time tend to be small values. When these ratios in the drug administration group are higher than those of the solvent administration group, it can be judged that the drug has anxiolytic-like action.

[4] = test system: rat sleep electroencephalogram; test: Effect for sleeping stage/waking stage, rat sleep electroencephalogram; assay type: in vivo; details: 30 or 100 mg/kg oral, 6 hours
Protocol: As non-motor symptoms in Parkinson's disease, sleep disorder such as insomnia (e.g. difficulty falling asleep, nocturnal awakening, etc.) is known. It is important to improve sleeping quality. The effect of the present compounds for sleep was evaluated by measuring rat sleep electroencephalogram.
In the present test, male Crlj: WI rats (CHARLES RIVER LABORATORIES JAPAN, INC.) were used. Under anesthesia, a radiofrequency transmitter (HD-S02, Data Science International, Inc.) was set in the peritoneal cavity of the rat, and two electrodes for measuring electroencephalogram were stereotaxically placed in the skull (frontoparietal electrode: 2 mm ahead of bregma and 2 mm left from midline, parietal electrode: 5 mm behind bregma and 2 mm right from midline). An electrode for recording electromyogram was placed in the dorsal neck muscle. After more than one week as postoperative recuperation period, the rats were used in the sleep electroencephalogram measurement.
The compound of Example 13 (30 mg/kg or 100 mg/kg) was orally administered to the rat just before light phase, and the electroencephalogram and electromyogram of the rat were recorded at 500 Hz for 6 hours in a breeding cage in a soundproof box. The recorded signals were classified to 3 stages, wake/REM sleep/non-REM sleep every 10 seconds with a sleep analysis program Sleepsign (version 3, Kissei Comtec Co., Ltd.), and aggregated. Specifically, when the myoelectric response was beyond the threshold defined for each individual animal, it was classified as wake, and otherwise it was classified as sleep. In the sleep, when the power value at delta wave (0.5-4 Hz) of EEG-frequency component was beyond the threshold defined for each individual beforehand, it was classified as non-REM sleep. When the power value at theta wave (4-8 Hz) was beyond 40% of the total power value at 0.5-80 Hz, it was classified as REM sleep.

Compound | levodopa-induced hyperactivity (total movement, 90 minutes) [1] | Cold Score in acetone test [2] | count of the open arm entry [3] | time spent in the open arm [3] | REM sleep latency [4] | REM sleep time [4] | non-REM sleep latency [4] | non-REM sleep time [4] | waking time [4]
CC(c1noc2ccccc12)S(N)(=O)=O (stereo not drawn) [Example 1, 1-(Benzo[d]isoxazol-3-yl)ethane-1-sulfonamide] | significantly-potentiating effect of levodopa-induced hyperactivity | – | – | – | – | – | – | – | –
C[C@H](c1noc2ccccc12)S(N)(=O)=O [Example 13, (1R)-1-(1,2-benzoxazol-3-yl)ethane-1-sulfonamide] | – | significantly lower Cold Score | increase significantly | increase significantly | tended to elongate | significantly shortened | significantly shortened | increased | significantly shortened
